Laboratory results as given in patent US12433838B2, “Liposomal formulation of bacterial lipopolysaccharide combined with a cytotoxic agent, and use thereof in anti-tumour therapy” (priority 2017, dated 2025).

Assays:
[1] = test system: SaOS cells; test: Apoptosis of SaOS spheroids with Lipo-LPS-activated THP-1 macrophages and/or etoposide (IncuCyte Caspase-3/7); assay type: cell-based, rat; details: 5 μM etoposide or macrophages stimulated 16 h with 100 ng/mL Lipo-LPS, fluorescence arbitrary units, FIG. 6
Text: The SaOS cells are […] osteosarcoma cells. This is a malignant bone tumour. These cells can be cultured according to a 3D spheroid model adapted to tumour cells.
THP-1 are human monocytic cells derived from an acute monocytic leukemia.
To perform cellular death monitoring of these SaOS cells, the fluorescent product IncuCyte® Caspase-3/7 has been used to evaluate the number of apoptosis cells.
The results are shown in FIG. 6, in fluorescence arbitrary units.

[2] = test system: RL lymphoma cells (CD20+ human B lymphoma cells); test: Tumour growth monitoring in RL cells xenografted mice; assay type: in vivo, Scid CB17 mice; details: 46 days after the tumour graft; 30 mg/kg, one injection per week; FIG. 1
Text: During this experiment, six groups of Scid CB17 mice have been used. Each group is comprised at six mice.
Group 1=control (no treatment)

Compound | Apoptosis rate of SaOS cells with respect to the control [1] | Apoptosis rate of SaOS cells with respect to the control ([1]; listed as epotoside) | Tumour volume relative to control mice [2]
COc1cc([C@@H]2c3cc4c(cc3[C@@H](O[C@@H]3O[C@@H]5CO[C@@H](C)O[C@H]5[C@H](O)[C@H]3O)[C@H]3COC(=O)[C@H]23)OCO4)cc(OC)c1O [etoposide] | induces cancer cell apoptosis | significantly increased with respect to the control | –
rituximab | – | – | twice lower
